From patent publication US9670227B2, “Thienopyrimidine derivatives, a process for their preparation and pharmaceutical compositions containing them” (LES LABORATOIRES SERVIER, priority 2013, dated 2017)

How the values were obtained:
[1] = molecular target: Mcl-1 protein (UniProtKB primary accession number: Q07820) (Homo sapiens, UniProt Q07820); assay: Inhibition of Mcl-1 by fluorescence polarisation, Method 1; format: binding; details: fluorescence polarisation test; Method 2 values are underlined in the patent (underlining not visible here); read-out: IC50 (M) Mcl-1 FP
In short: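 Fluorescence polarisation competition with an 11-point compound dilution series (final DMSO 5%). Mcl-1 protein at 5 nM and fluorescein-labelled ligand at 1 nM (final) in 10 mM HEPES, 150 mM NaCl, 0.05% Tween 20, pH 7.4.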

[2] = tested on: H929 multiple myeloma tumour line; assay: In vitro cytotoxicity, Microculture Tetrazolium Assay; format: cell-based; details: Homo sapiens, NCI-H929, 48 h, H929 cells, 48 hours exposure, MTT; read-out: IC50 (μM) MTT H929
Method: The cytotoxicity studies were carried out on the H929 multiple myeloma tumour line.
The cells are distributed onto microplates and exposed to the test compounds for 48 hours.

Sequence of Mcl-1 protein (Q07820 whole entry): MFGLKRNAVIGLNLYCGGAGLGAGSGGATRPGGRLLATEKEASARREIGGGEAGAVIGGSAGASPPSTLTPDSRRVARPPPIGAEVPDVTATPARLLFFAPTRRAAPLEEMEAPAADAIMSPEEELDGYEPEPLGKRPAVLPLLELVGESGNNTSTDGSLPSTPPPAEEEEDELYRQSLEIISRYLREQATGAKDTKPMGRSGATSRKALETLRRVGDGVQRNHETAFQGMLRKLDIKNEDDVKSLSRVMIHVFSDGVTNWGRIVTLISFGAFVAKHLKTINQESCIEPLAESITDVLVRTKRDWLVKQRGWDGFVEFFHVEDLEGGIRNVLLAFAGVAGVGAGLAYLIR

| SMILES | IC50 [1] | IC50 [2] |
| --- | --- | --- |
| Cc1c(-c2c(-c3ccc(F)o3)sc3ncnc(OC(Cc4ccccc4OCC(=O)NCc4ccccc4)C(=O)O)c23)ccc(OCCN2CCN(C)CC2)c1Cl [Example 153, (2R)-3-{2-[2-(benzylamino)-2-oxoethoxy]phenyl}-2-{[(5Sa)-5-{3-chloro-2-methyl-4-[2-(4-methylpiperazin-1-yl)ethoxy]phenyl}-6-(5-fluorofuran-2-yl)thieno[2,3-d]pyrimidin-4-yl]oxy}propanoic acid] | 5e-09 M | 0.146 µM |
| CCCNC(=O)COc1ccccc1CC(Oc1ncnc2sc(-c3ccc(F)o3)c(-c3ccc(OCCN4CCN(C)CC4)c(Cl)c3C)c12)C(=O)O [Example 154, (2R)-2-{[(5Sa)-5-{3-chloro-2-methyl-4-[2-(4-methylpiperazin-1-yl)ethoxy]phenyl}-6-(5-fluorofuran-2-yl)thieno[2,3-d]pyrimidin-4-yl]oxy}-3-{2-[2-oxo-2-(propylamino)ethoxy]phenyl}propanoic acid] | 6.6e-09 M | 0.1 µM |
| Cc1c(-c2c(-c3ccc(F)o3)sc3ncnc(OC(Cc4ccccc4OCC(=O)NCCc4ccccc4)C(=O)O)c23)ccc(OCCN2CCN(C)CC2)c1Cl [Example 155, (2R)-2-{[(5Sa)-5-{3-chloro-2-methyl-4-[2-(4-methylpiperazin-1-yl)ethoxy]phenyl}-6-(5-fluorofuran-2-yl)thieno[2,3-d]pyrimidin-4-yl]oxy}-3-(2-{2-oxo-2-[(2-phenylethyl)amino]ethoxy}phenyl)propanoic acid] | 7.6e-09 M | 0.189 µM |
| CCCCNC(=O)COc1ccccc1CC(Oc1ncnc2sc(-c3ccc(F)o3)c(-c3ccc(OCCN4CCN(C)CC4)c(Cl)c3C)c12)C(=O)O [Example 156, (2R)-3-{2-[2-(butylamino)-2-oxoethoxy]phenyl}-2-{[(5Sa)-5-{3-chloro-2-methyl-4-[2-(4-methylpiperazin-1-yl)ethoxy]phenyl}-6-(5-fluorofuran-2-yl)thieno[2,3-d]pyrimidin-4-yl]oxy}propanoic acid] | 7e-09 M | 0.092 µM |
| COCCNC(=O)COc1ccccc1CC(Oc1ncnc2sc(-c3ccc(F)o3)c(-c3ccc(OCCN4CCN(C)CC4)c(Cl)c3C)c12)C(=O)O [Example 157, (2R)-2-{[(5Sa)-5-{3-chloro-2-methyl-4-[2-(4-methylpiperazin-1-yl)ethoxy]phenyl}-6-(5-fluorofuran-2-yl)thieno[2,3-d]pyrimidin-4-yl]oxy}-3-(2-{2-[(2-methoxyethyl)amino]-2-oxoethoxy}phenyl)propanoic acid] | 7e-09 M | 0.286 µM |
| Cc1c(-c2c(-c3ccc(F)o3)sc3ncnc(OC(Cc4ccccc4OCc4cc(C(F)(F)F)ccn4)C(=O)O)c23)ccc(OCCN2CCN(C)CC2)c1Cl [Example 159, (2R)-2-{[(5Sa)-5-{3-chloro-2-methyl-4-[2-(4-methylpiperazin-1-yl)ethoxy]phenyl}-6-(5-fluorofuran-2-yl)thieno[2,3-d]pyrimidin-4-yl]oxy}-3-(2-{[4-(trifluoromethyl)pyridin-2-yl]methoxy}phenyl)propanoic acid] | 9.8e-09 M | 0.246 µM |
| COc1nc(C)cc(COc2ccccc2CC(Oc2ncnc3sc(-c4ccc(F)o4)c(-c4ccc(OCCN5CCN(C)CC5)c(Cl)c4C)c23)C(=O)O)n1 [Example 160, (2R)-2-{[(5Sa)-5-{3-chloro-2-methyl-4-[2-(4-methylpiperazin-1-yl)ethoxy]phenyl}-6-(5-fluorofuran-2-yl)thieno[2,3-d]pyrimidin-4-yl]oxy}-3-{2-[(2-methoxy-6-methylpyrimidin-4-yl)methoxy]phenyl}propanoic acid] | 5e-09 M | 0.021 µM |
| Cc1cc(COc2ccccc2CC(Oc2ncnc3sc(-c4ccc(F)o4)c(-c4ccc(OCCN5CCN(C)CC5)c(Cl)c4C)c23)C(=O)O)ncn1 [Example 161, (2R)-2-{[(5Sa)-5-{3-chloro-2-methyl-4-[2-(4-methylpiperazin-1-yl)ethoxy]phenyl}-6-(5-fluorofuran-2-yl)thieno[2,3-d]pyrimidin-4-yl]oxy}-3-{2-[(6-methylpyrimidin-4-yl)methoxy]phenyl}propanoic acid] | 3.9e-09 M | 0.081 µM |
| COc1cc(COc2ccccc2CC(Oc2ncnc3sc(-c4ccc(F)o4)c(-c4ccc(OCCN5CCN(C)CC5)c(Cl)c4C)c23)C(=O)O)ncn1 [Example 162, (2R)-2-{[(5Sa)-5-{3-chloro-2-methyl-4-[2-(4-methylpiperazin-1-yl)ethoxy]phenyl}-6-(5-fluorofuran-2-yl)thieno[2,3-d]pyrimidin-4-yl]oxy}-3-{2-[(6-methoxypyrimidin-4-yl)methoxy]phenyl}propanoic acid] | 9.9e-09 M | 0.027 µM |
| Cc1c(-c2c(-c3ccc(F)o3)sc3ncnc(OC(Cc4ccccc4OCc4ccc(F)cn4)C(=O)O)c23)ccc(OCCN2CCN(C)CC2)c1Cl [Example 163, (2R)-2-{[(5Sa)-5-{3-chloro-2-methyl-4-[2-(4-methylpiperazin-1-yl)ethoxy]phenyl}-6-(5-fluorofuran-2-yl)thieno[2,3-d]pyrimidin-4-yl]oxy}-3-{2-[(5-fluoropyridin-2-yl)methoxy]phenyl}propanoic acid] | 1.2e-08 M | 0.047 µM |
| Cc1c(-c2c(-c3ccc(F)o3)sc3ncnc(OC(Cc4ccccc4OCc4cccc(C(F)(F)F)n4)C(=O)O)c23)ccc(OCCN2CCN(C)CC2)c1Cl [Example 164, (2R)-2-{[(5Sa)-5-{3-chloro-2-methyl-4-[2-(4-methylpiperazin-1-yl)ethoxy]phenyl}-6-(5-fluorofuran-2-yl)thieno[2,3-d]pyrimidin-4-yl]oxy}-3-(2-{[6-(trifluoromethyl)pyridin-2-yl]methoxy}phenyl)propanoic acid] | 8.2e-09 M | 0.046 µM |
| Cc1c(-c2c(-c3ccc(F)o3)sc3ncnc(OC(Cc4ccccc4OCc4ccnc(C(F)(F)F)n4)C(=O)O)c23)ccc(OCCN2CCN(C)CC2)c1Cl [Example 169, (2R)-2-{[(5Sa)-5-{3-chloro-2-methyl-4-[2-(4-methylpiperazin-1-yl)ethoxy]phenyl}-6-(5-fluorofuran-2-yl)thieno[2,3-d]pyrimidin-4-yl]oxy}-3-(2-{[2-(trifluoromethyl)pyrimidin-4-yl]methoxy}phenyl)propanoic acid] | 9e-09 M | 0.009 µM |
| Cc1c(-c2c(-c3ccc(F)o3)sc3ncnc(OC(Cc4ccccc4OCc4ccnc(-c5ccsc5)n4)C(=O)O)c23)ccc(OCCN2CCN(C)CC2)c1Cl [Example 173, (2R)-2-{[(5Sa)-5-{3-chloro-2-methyl-4-[2-(4-methylpiperazin-1-yl)ethoxy]phenyl}-6-(5-fluorofuran-2-yl)thieno[2,3-d]pyrimidin-4-yl]oxy}-3-(2-{[2-(thiophen-3-yl)pyrimidin-4-yl]methoxy}phenyl)propanoic acid] | 3.1e-09 M | 0.004 µM |
| Cc1c(-c2c(-c3ccc(F)o3)sc3ncnc(OC(Cc4ccccc4OCc4ccnc(OCC(F)(F)F)n4)C(=O)O)c23)ccc(OCCN2CCN(C)CC2)c1Cl [Example 178, (2R)-2-{[(5Sa)-5-{3-chloro-2-methyl-4-[2-(4-methylpiperazin-1-yl)ethoxy]phenyl}-6-(5-fluorofuran-2-yl)thieno[2,3-d]pyrimidin-4-yl]oxy}-3-(2-{[2-(2,2,2-trifluoroethoxy)pyrimidin-4-yl]methoxy}phenyl)propanoic acid] | 6.3e-09 M | 0.002 µM |
| Cc1c(-c2c(-c3ccc(F)o3)sc3ncnc(OC(Cc4ccccc4OCc4ccncn4)C(=O)O)c23)ccc(OCCN2CCN(C)CC2)c1Cl [Example 179, (2R)-2-{[(5Sa)-5-{3-chloro-2-methyl-4-[2-(4-methylpiperazin-1-yl)ethoxy]phenyl}-6-(5-fluorofuran-2-yl)thieno[2,3-d]pyrimidin-4-yl]oxy}-3-[2-(pyrimidin-4-ylmethoxy)phenyl]propanoic acid] | 5e-09 M | 0.03 µM |
| Cc1c(-c2c(-c3ccc(F)o3)sc3ncnc(OC(Cc4ccccc4OCc4ccnn4C4CCCC4)C(=O)O)c23)ccc(OCCN2CCN(C)CC2)c1Cl [Example 183, (2R)-2-{[(5Sa)-5-{3-chloro-2-methyl-4-[2-(4-methylpiperazin-1-yl)ethoxy]phenyl}-6-(5-fluorofuran-2-yl)thieno[2,3-d]pyrimidin-4-yl]oxy}-3-{2-[(1-cyclopentyl-1H-pyrazol-5-yl)methoxy]phenyl}propanoic acid] | 5.7e-09 M | 0.012 µM |
| Cc1c(-c2c(-c3ccc(F)o3)sc3ncnc(OC(Cc4ccccc4OCc4ccnn4CC4CC4)C(=O)O)c23)ccc(OCCN2CCN(C)CC2)c1Cl [Example 186, (2R)-2-{[(5Sa)-5-{3-chloro-2-methyl-4-[2-(4-methylpiperazin-1-yl)ethoxy]phenyl}-6-(5-fluorofuran-2-yl)thieno[2,3-d]pyrimidin-4-yl]oxy}-3-(2-{[1-(cyclopropylmethyl)-1H-pyrazol-5-yl]methoxy}phenyl)propanoic acid] | 4.3e-09 M | 0.013 µM |
| CCCn1nccc1COc1ccccc1CC(Oc1ncnc2sc(-c3ccc(F)o3)c(-c3ccc(OCCN4CCN(C)CC4)c(Cl)c3C)c12)C(=O)O [Example 187, (2R)-2-{[(5Sa)-5-{3-chloro-2-methyl-4-[2-(4-methylpiperazin-1-yl)ethoxy]phenyl}-6-(5-fluorofuran-2-yl)thieno[2,3-d]pyrimidin-4-yl]oxy}-3-{2-[(1-propyl-1H-pyrazol-5-yl)methoxy]phenyl}propanoic acid] | 2.8e-09 M | 0.02 µM |
| Cc1c(-c2c(-c3ccc(F)o3)sc3ncnc(OC(Cc4ccccc4OCc4cncnc4)C(=O)O)c23)ccc(OCCN2CCN(C)CC2)c1Cl [Example 190, (2R)-2-{[(5Sa)-5-{3-chloro-2-methyl-4-[2-(4-methylpiperazin-1-yl)ethoxy]phenyl}-6-(5-fluorofuran-2-yl)thieno[2,3-d]pyrimidin-4-yl]oxy}-3-[2-(pyrimidin-5-ylmethoxy)phenyl]propanoic acid] | 7.5e-09 M | 0.037 µM |
